The values below come from US20050220899A1, “Use of cisplatin in combination with folic acid for increasing cisplatin efficacy” (priority 2002, published 2005).

This assay relates to mesothelioma. The assay can be described thus: Treatment of human mesothelioma patients with cisplatin with or without folic acid. It counts as in vivo. As to conditions: human patients exhibiting mesothelioma; 75-120 mg/m^2 of cisplatin.

Compound `N.N.[Cl][Pt][Cl]` [cisplatin, cis-diamminedichloroplatinum] came in with a median survival time of 7.2 months and a response rate of 8.5%.
